Data: BindingDB's records for doi:10.1021/acs.biochem.5b01325 (University of Texas At San Antonio, 2016)

Target: T1, (S)-6-hydroxynicotine oxidase (Paenarthrobacter nicotinovorans, UniProt O86101)
T1 sequence (O86101 whole entry): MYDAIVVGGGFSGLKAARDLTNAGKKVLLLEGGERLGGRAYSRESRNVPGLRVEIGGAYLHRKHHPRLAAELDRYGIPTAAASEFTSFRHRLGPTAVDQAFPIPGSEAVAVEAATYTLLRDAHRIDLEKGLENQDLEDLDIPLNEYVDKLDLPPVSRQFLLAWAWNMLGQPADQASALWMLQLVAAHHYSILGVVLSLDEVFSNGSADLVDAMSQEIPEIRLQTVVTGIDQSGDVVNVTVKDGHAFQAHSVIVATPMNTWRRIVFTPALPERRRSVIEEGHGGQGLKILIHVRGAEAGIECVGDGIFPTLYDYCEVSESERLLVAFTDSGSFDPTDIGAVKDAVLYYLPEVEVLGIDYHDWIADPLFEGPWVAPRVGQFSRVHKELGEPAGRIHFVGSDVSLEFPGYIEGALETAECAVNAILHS
Assay: Steady-State Kinetics
Conditions: pH 8
Protocol: Initial rates of amine oxidation were routinely measured by monitoring oxygen consumption in 0.1 M Hepes (pH 8.0) and 0.1 M NaCl at 25 °C using an oxygen electrode (model 5300A, Yellow Springs Instruments, Yellow Springs, OH). With (R,S)-6-hydroxynicotine and (S)-6-hydroxynornicotine, the concentration of enzyme was typically 0.1 μM; this was increased to 4 μM for (S)-nicotine and (R,S)-4-(1-methyl pyrrolidine-2-yl)phenol. The concentration of oxygen was varied by bubbling the desired concentration of oxygen (62 μM to 1.25 mM) into the oxygen electrode cell for ∼10 min.

Row | Structure (SMILES) | Kd [µM]
1 | CN1CCC[C@H]1c1ccc(O)cc1 [(S)-4-(1-methylpyrrolidine-2-yl)phenol] | 2000
2 | CN1CCC[C@H]1c1ccc(=O)[nH]c1 [(S)-6-hydroxynicotine] | 100
3 | O=c1ccc([C@@H]2CCCN2)c[nH]1 [(S)-6-hydroxynornicotine] | 300
